# Measured values as given in BindingDB's records for PubMed 11602678 (Otsuka Maryland Research Institute, 2001).
# Assays:
# [1] = target: T1, Alpha-2A adrenergic receptor [16-465] (Rattus norvegicus, UniProt P22909)
# T1 construct: 16-465
# T1 sequence (P22909 whole entry): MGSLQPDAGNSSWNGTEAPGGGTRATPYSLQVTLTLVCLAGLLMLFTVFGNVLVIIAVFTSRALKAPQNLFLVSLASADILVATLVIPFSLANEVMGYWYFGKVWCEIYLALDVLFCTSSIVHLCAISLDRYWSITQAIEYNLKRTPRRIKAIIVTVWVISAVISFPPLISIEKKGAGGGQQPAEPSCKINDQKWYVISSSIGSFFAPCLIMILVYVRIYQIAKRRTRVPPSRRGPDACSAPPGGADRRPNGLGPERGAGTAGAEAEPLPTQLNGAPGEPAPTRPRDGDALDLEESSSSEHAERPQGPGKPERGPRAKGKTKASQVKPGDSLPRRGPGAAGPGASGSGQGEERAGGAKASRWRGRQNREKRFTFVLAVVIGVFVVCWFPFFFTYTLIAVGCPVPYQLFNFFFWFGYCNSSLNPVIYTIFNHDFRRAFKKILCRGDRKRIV
# [2] = target: T2, Alpha-2C adrenergic receptor (Rattus norvegicus, UniProt P22086)
# T2 sequence (P22086 whole entry): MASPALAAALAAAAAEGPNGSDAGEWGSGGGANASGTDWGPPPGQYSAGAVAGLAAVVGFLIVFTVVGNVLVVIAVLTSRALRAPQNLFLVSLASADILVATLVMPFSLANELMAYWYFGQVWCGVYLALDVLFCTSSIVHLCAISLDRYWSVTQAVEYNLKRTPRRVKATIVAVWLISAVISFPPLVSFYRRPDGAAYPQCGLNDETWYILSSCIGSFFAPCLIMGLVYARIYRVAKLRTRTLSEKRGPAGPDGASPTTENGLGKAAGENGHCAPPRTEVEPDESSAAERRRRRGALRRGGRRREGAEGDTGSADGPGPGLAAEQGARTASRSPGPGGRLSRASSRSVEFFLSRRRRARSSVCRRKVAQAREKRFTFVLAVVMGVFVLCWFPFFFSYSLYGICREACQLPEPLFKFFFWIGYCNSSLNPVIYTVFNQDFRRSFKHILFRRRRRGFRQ
smiles,measurement,setting,value
CCC(=O)Nc1c(C)cc(C(=O)N2CCC(N(C)CCc3ccccc3)CC2)cc1C [NSC_219019],Ki,[1],3840 nM
same,Ki,[2],13.7 nM
